Where two headings read alike, the source gives them in different places.
Experiments:
[1] = molecular target: T1, GRK2 (Homo sapiens, UniProt P25098); assay: Second ADPGlo GRK2 Inhibition Assay (Example 3); type: biochemical; conditions: ADP-Glo, 20 μM ATP; read-out: Second ADPGlo Enzymatic GRK2 Assay: IC50 (nM) (Example 3)
T1 sequence (P25098 1-689): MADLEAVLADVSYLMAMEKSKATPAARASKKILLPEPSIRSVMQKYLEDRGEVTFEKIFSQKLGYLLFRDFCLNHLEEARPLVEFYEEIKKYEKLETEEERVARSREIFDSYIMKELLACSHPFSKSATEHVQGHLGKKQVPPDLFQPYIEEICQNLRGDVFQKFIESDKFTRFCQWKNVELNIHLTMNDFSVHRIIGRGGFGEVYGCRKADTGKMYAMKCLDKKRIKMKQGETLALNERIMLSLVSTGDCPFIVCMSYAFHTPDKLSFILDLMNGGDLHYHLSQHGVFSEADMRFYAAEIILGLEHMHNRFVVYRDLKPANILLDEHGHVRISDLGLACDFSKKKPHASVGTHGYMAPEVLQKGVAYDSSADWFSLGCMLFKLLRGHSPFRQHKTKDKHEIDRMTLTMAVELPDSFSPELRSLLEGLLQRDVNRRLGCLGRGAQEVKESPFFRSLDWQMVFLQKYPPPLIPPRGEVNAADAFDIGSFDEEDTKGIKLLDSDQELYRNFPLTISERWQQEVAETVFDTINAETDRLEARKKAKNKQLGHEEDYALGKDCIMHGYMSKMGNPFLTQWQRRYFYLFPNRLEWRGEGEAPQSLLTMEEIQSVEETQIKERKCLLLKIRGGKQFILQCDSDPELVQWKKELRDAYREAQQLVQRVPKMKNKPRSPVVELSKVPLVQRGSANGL
Description: Assay: GRK2 (2 nM) was incubated with ATP (20 μM) and GRKtide (1.2 mg/mL) in 11 μL of assay buffer (see above) for 180 min at room temperature. Compounds were dissolved in 100% DMSO, serially diluted 3.16-fold from 100 μM with 10 concentration points and transferred as 100× into assay plate (final compounds concentration in the reaction plate from 1 μM).
Materials: GRK2 was purchased from SignalChem (Cat #A14-10G, Lot #X645-3). Substrate GRKtide was from SignalChem (Cat #G46-58, Lot #R339-6). ADP-Glo Kinase Assay from Promega (Cat #V9102). Assay buffer consisted of 20 mM HEPES (pH7.5), 20 mM MgCl2, 0.01% Tween-20, 0.05 mM DDT. 384-well white plates were from Corning (Cat #4513).
HTS protocol: Add 5.5 μL of 2× substrate-enzyme mix into all columns except of 1-2 and 24 of reaction plate. Spin 15 seconds at 200 g. Transfer 1 ul of compounds from the plate with serial dilutions (384 well plate with 22 uL of compound in columns 3-22/DMSO solution 1-2,23-24) to Dilution plate (384 well plate with 49 uL of buffer with 2×40 μM ATP). After mixing transfer 5.5 ul from Dilution plate to Reaction plate (to 5.5 μL of 2× substrate-enzyme mix). Spin 15 seconds at 200 g and incubate for 180 min at room temperature with sealing. Add 3 μL ADP-Glo reagent to all the wells. Spin 15 seconds at 200 g and incubate for 40 min at room temperature. Add 6 μL Detection solution to all the wells. Incubate for 30 min at room temperature. Read plate using ClarioStar Plus (BMG).
Data Analysis: Data were analyzed in GraphPad Prism 5.0.2. Each HTS plate contains compounds in columns 3-22, controls (enzyme, no compound) in column 23, and blanks (no enzyme) in columns 2. HTS percent inhibition was calculated for each compound from the signal in luminescence units and the mean of the plate controls and the mean of the plate blanks using the following equation: % Inhibition=100*(1-(signal-blank mean)/(control mean-blank mean)).

[2] = test system: PAXF1657 KO Clone #4; assay: 7-day cellular proliferation assay (CellTiter-Glo), PAXF1657 KO Clone #4; type: cell-based
Outline: (§1)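 Read-out is CellTiter-Glo luminescence after 7 days of continuous exposure, with compound re-dosed in fresh medium at day 3. Cells were seeded at 500/well and treated across 30 μM-0.0002 μM (10 points, 0.3% DMSO); baseline viability plates were read at compound addition.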

[3] = molecular target: T1, GRK2; assay: GRK2 Degradation Assay and Western Blot in PAXF1657 cells; type: cell-based; set-up: endogenous in cells; host or cells: PAXF1657
Outline: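 PAXF1657 cells grown to 70% confluency, then treated with compounds at 0–10 μM for 6 to 24 h at 37 °C. Lysates in PBS with 1% NP40 run on SDS-PAGE. GRK2 protein detected by western blot with β-actin as loading reference, using ECL chemiluminescence.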

[4] = molecular target: T1, GRK2; assay: GRK2 Inhibition Assay (TR-FRET, Example 1); type: biochemical
Outline: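 GRK2 (1 nM) pre-incubated 30 min RT with compounds in HEPES/MgCl2/DTT/Tween-20/EGTA buffer, then reacted 90 min RT with 7 μM ATP and 50 nM ULight-TopoIIα substrate. Stopped with EDTA plus Eu anti-TopoIIα antibody; TR-FRET read after 60 min.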

[5] = test system: PAXF1657 EV; assay: 7-day cellular proliferation assay (CellTiter-Glo), PAXF1657 EV; type: cell-based
Outline: as §1

[6] = proliferation, read-out: GeoMean IC50 (uM) PAXF1657 KO Clone #4
[7] = Conc 0.3 uM, read-out: Degradation Assay - 3 point: Degradation (%)
[8] = Conc 1 uM, read-out: Degradation Assay - 3 point: Degradation (%)
[9] = Conc 3 uM, read-out: Degradation Assay - 3 point: Degradation (%)
[10] = Table 4, Example 1 assay, read-out: Enzymatic GRK2 IC50: Av IC50 GRK2
[11] = proliferation, read-out: GeoMean IC50 (UM) PAXF1657 EV
[12] = 168 h, 7-day, read-out: 7-day proliferation assay: IC50 GeoMean (uM) [Cell Line: PAXF1657 KO Clone #4]
[13] = 1 uM, PAXF1657 EV, 24 hrs, read-out: % GRK2 degradation at 1 uM in PAXF1657 EV (24 hrs)
[14] = 3 uM, PAXF1657 EV, 24 hrs, read-out: % GRK2 degradation at 3 uM in PAXF1657 EV (24 hrs)
[15] = TR-FRET, 7 μM ATP, read-out: Enzymatic GRK2 Assay: IC50 (nM) (Example 1)
[16] = 168 h, 7-day, read-out: 7-day proliferation assay: IC50 GeoMean (uM) [Cell Line: PAXF1657 EV]

Row | IC50 [1] | inhibition at 0.3 µM [3, 7] | inhibition at 1 µM [3, 8] | inhibition at 3 µM [3, 9] | IC50 [4, 10] | Structure (SMILES) | IC50 [2, 6] | IC50 [5, 11] | other results
1 | > 1000 nM |  |  |  |  | COc1cc(OCCNC(=O)CCOCCOCCOCCNC(=O)Nc2cccc3c2CN(C2CCC(=O)NC2=O)C3=O)ccc1CNC(=O)c1cccc(NCc2nnc(-c3ccncn3)n2C)c1 (stereo not shown) [Compound D68] |  |  | 
2 | < 100 nM |  |  |  |  | COc1cc(OCCNC(=O)CCCCCC(=O)N[C@H](C(=O)C2C[C@H](O)C[C@H]2C(=O)NCc2ccc(-c3scnc3C)cc2)C(C)(C)C)ccc1CNC(=O)c1cccc(NCc2nnc(-c3ccncn3)n2C)c1 (stereo partly shown) [Compound D93] |  |  | 
3 | < 100 nM |  |  |  |  | Cc1ncsc1-c1ccc(CNC(=O)[C@@H]2C[C@@H](O)CN2C(=O)[C@@H](NC(=O)CCCCCOCCOCCCCCCOc2cccc(CNC(=O)c3cccc(NCc4nnc(-c5ccncn5)n4C)c3)c2)C(C)(C)C)cc1 [Compound D76] |  |  | 
4 | 100 to 1000 nM |  |  |  |  | COc1cc(OCC(=O)NCCOCCOCCNC(=O)COCC(=O)N[C@H](C(=O)N2C[C@H](O)C[C@H]2C(=O)NCc2ccc(-c3scnc3C)cc2)C(C)(C)C)ccc1CNC(=O)c1cccc(NCc2nnc(-c3ccncn3)n2C)c1 [Compound D94] |  |  | 
5 |  | 88% | 82% | 83% | 10.4 nM | C[C@@H](NC(=O)c1cccc(NCc2nnc(-c3ccncn3)n2C)c1)c1cccc(OCCCCCCOCCOCCNc2cccc3c2CN(C2CCC(=O)NC2=O)C3=O)c1 (stereo partly shown) [Compound D143] | 5.32 µM | 0.11 µM | DC50 ([3]; PAXF1657, 24 h, read-out: Degradation Assay - Full Dose Response: IC50 (uM) [cell line: PAXF1657, time point: 24 h]): 0.11 µM
6 |  | 87% | 86% | 85% | 8.71 nM | CN[C@@H](C)C(=O)N[C@H](C(=O)N1CCC[C@H]1c1nc(C(=O)c2cccc(OCc3cn(CCCCCCOc4cccc([C@@H](C)NC(=O)c5cccc(NCc6nnc(-c7ccncn7)n6C)c5)c4)nn3)c2)cs1)C1CCCCC1 [Compound D105] | 3.72 µM | 0.11 µM | 
7 |  |  |  |  |  | Cc1ncsc1-c1ccc(CNC(=O)[C@@H]2C[C@@H](O)CN2C(=O)[C@@H](NC(=O)CCCCCOCCOCCOCCCCCCOc2cccc(C(C)NC(=O)c3cccc(NCc4nnc(-c5ccncn5)n4C)c3)c2)C(C)(C)C)cc1 (stereo partly drawn) [Compound D91, (2S,4R)-1-((2S)-2-(tert-butyl)-22-(3-(1-(3-(((4-methyl-5-(pyrimidin-4-yl)-4H-1,2,4-triazol-3-yl)methyl)amino)benzamido)ethyl)phenoxy)-4-oxo-10,13,16-trioxa-3-azadocosan-1-oyl)-4-hydroxy-N-(4-(4-methylthiazol-5-yl)benzyl)pyrrolidine-2-carboxamide] |  |  | IC50 [2, 12]: 1 to 10 µM; % GRK2 degradation at 0.03 uM in PAXF1657 EV (24 hrs) ([3]; 0.03 uM, PAXF1657 EV, 24 hrs): 37%; % GRK2 degradation at 0.1 uM in PAXF1657 EV (24 hrs) ([3]; 0.1 uM, PAXF1657 EV, 24 hrs): 28%; inhibition at 0.3 µM ([3]; 0.3 uM, PAXF1657 EV, 24 hrs, read-out: % GRK2 degradation at 0.3 uM in PAXF1657 EV (24 hrs)): 42%; inhibition at 1 µM [3, 13]: 51%; inhibition at 3 µM [3, 14]: 16%; % GRK2 degradation at 10 uM in PAXF1657 EV (24 hrs) ([3]; 10 uM, PAXF1657 EV, 24 hrs): −4%; IC50 [4, 15]: < 100 nM; IC50 [5, 16]: < 1 µM
8 |  | 51% | 72.7% | 72.9% | 14.1 nM | Cc1ncsc1-c1ccc(CNC(=O)[C@@H]2C[C@@H](O)CN2C(=O)[C@@H](NC(=O)CCCCCOCCOCCOCCCCCCOc2cccc([C@@H](C)NC(=O)c3cccc(NCc4nnc(-c5ccncn5)n4C)c3)c2)C(C)(C)C)cc1 [Compound D162] | 11.4 µM | 0.49 µM | 
9 |  | -23.2% | 8.53% | -38.6% | 16.3 nM | C[C@@H](NC(=O)c1cccc(NCc2nnc(-c3ccncn3)n2C)c1)c1cccc(OCCN2CCN(c3ccc4c(c3)CN(C3CCC(=O)NC3=O)C4=O)CC2)c1 (stereo partly drawn) [Compound D128, N-((1R)-1-(3-(2-(4-(2-(2,6-dioxopiperidin-3-yl)-1-oxoisoindolin-5-yl)piperazin-1-yl)ethoxy)phenyl)ethyl)-3-((4-methyl-5-(pyrimidin-4-yl)-4H-1,2,4-triazol-3-yl)methylamino)benzamide] | > 30 µM | 0.8 µM | 
10 |  | 15% | 30% | -40% | 6.6 nM | Cc1ncsc1-c1ccc(CNC(=O)[C@@H]2C[C@@H](O)CN2C(=O)[C@@H](NC(=O)CCCOCCOCCOCCCCCCOc2ccc([C@@H](C)NC(=O)c3cccc(NCc4nnc(-c5ccncn5)n4C)c3)cc2)C(C)(C)C)cc1 [Compound D116] | 7.48 µM | 1.88 µM | 
11 |  | 52.5% | 48.5% | 14.7% | 18.6 nM | C[C@@H](NC(=O)c1cccc(NCc2nnc(-c3ccncn3)n2C)c1)c1ccc(OCCCN2CCN(c3ccc4c(c3)CN(C3CCC(=O)NC3=O)C4=O)CC2)cc1 (stereo partly shown) [Compound D173] | 0.26 µM | 0.03 µM | 
12 |  |  |  |  |  | Cc1ncsc1-c1ccc([C@H](C)NC(=O)[C@@H]2C[C@@H](O)CN2C(=O)[C@@H](NC(=O)CCCCCOCCOCCOCCCCCCOc2cccc(CNC(=O)c3cccc(NCc4nnc(-c5ccncn5)n4C)c3)c2)C(C)(C)C)cc1 [Compound D90] |  |  | IC50 [2, 12]: > 10 µM; inhibition at 1 µM [3, 13]: 23%; inhibition at 3 µM [3, 14]: 20%; IC50 [4, 15]: < 100 nM; IC50 [5, 16]: 1 to 10 µM

Row | Structure (SMILES) | IC50 [1] | inhibition at 0.3 µM [3, 7] | inhibition at 1 µM [3, 8] | inhibition at 3 µM [3, 9] | IC50 [4, 10] | IC50 [2, 6] | IC50 [5, 11] | other results
13 | C[C@@H](NC(=O)c1cccc(NCc2nnc(-c3ccncn3)n2C)c1)c1ccc(OCCCCCCOCCOCCOCCCC(=O)Nc2cccc3c2CN(C2CCC(=O)NC2=O)C3=O)cc1 (stereo partly drawn) [Compound D127, N-((1R)-1-(4-(6-(2-(2-(4-(2-(2,6-dioxopiperidin-3-yl)-1-oxoisoindolin-4-ylamino)-4-oxobutoxy)ethoxy)ethoxy)hexyloxy)phenyl)ethyl)-3-((4-methyl-5-(pyrimidin-4-yl)-4H-1,2,4-triazol-3-yl)methylamino)benzamide] |  | 81.4% | 82.1% | 78.5% | 2.2 nM | > 30 µM | 0.1 µM | 

Reference: patent US20240174637A1, “DEGRADERS OF GRK2 AND USES THEREOF” (Sonata Therapeutics, Inc., priority 2021, published 2024)
